From PubChem BioAssay (NCI)
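Results reflect a 48-hour exposure of cells in 96-well plates to compound at five concentrations. Here, GI50 denotes the concentration required for 50% inhibition of growth. The concentration for full growth arrest is given as TGI.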

Columns and labels:
Assay in all cases: DTP human tumour cell line panel, 48 h
COLO 205 colon = test system: COLO 205 colon
HS 578T breast = test system: HS 578T breast
MDA-MB-435 = test system: MDA-MB-435
NCI/ADR-RES ovarian = test system: NCI/ADR-RES ovarian
OVCAR-5 ovarian = test system: OVCAR-5 ovarian
RXF 393 renal = test system: RXF 393 renal
SF-539 CNS = test system: SF-539 CNS
SK-MEL-28 melanoma = test system: SK-MEL-28 melanoma
SK-MEL-5 melanoma = test system: SK-MEL-5 melanoma
UACC-257 melanoma = test system: UACC-257 melanoma

SMILES	GI50 (COLO 205 colon) [µM]	TGI (COLO 205 colon) [µM]	GI50 (HS 578T breast) [µM]	TGI (HS 578T breast) [µM]	GI50 (MDA-MB-435) [µM]	TGI (MDA-MB-435) [µM]	GI50 (NCI/ADR-RES ovarian) [µM]	TGI (NCI/ADR-RES ovarian) [µM]	GI50 (OVCAR-5 ovarian) [µM]	TGI (OVCAR-5 ovarian) [µM]	GI50 (RXF 393 renal) [µM]	TGI (RXF 393 renal) [µM]	GI50 (SF-539 CNS) [µM]	TGI (SF-539 CNS) [µM]	GI50 (SK-MEL-28 melanoma) [µM]	TGI (SK-MEL-28 melanoma) [µM]	GI50 (SK-MEL-5 melanoma) [µM]	TGI (SK-MEL-5 melanoma) [µM]	GI50 (UACC-257 melanoma) [µM]	TGI (UACC-257 melanoma) [µM]
BrCc1ccc(CBr)cc1	0.146	> 100	21.6	69	5.56	15.6	6.95	> 21.1	9.61	29.1	5.61	16.2	3.02	11.8	8.29	23.3	14.3	40.2	14	38.9
Cc1cccc(NC(=O)c2sc3nc4c(cc3c2N)CN(Cc2ccccc2)CC4)c1C	0.274	> 50	0.189	> 50	0.065	0.181	0.133	> 50	0.484	> 50	0.133	2.11	0.165	28.2	4.06	> 50	0.213	> 50	> 50	> 50
CC(=O)c1c(C(F)(F)F)n([O-])c2ccc(C)cc2[n+]1=O	3.35	> 43.8	3.43	> 58.5	6.99	35.9	3.34	> 35.5	7	40.3	10.2	> 100	1.78	5.1	23.3	> 100	1.07	3	4.42	> 46.8
C#CCOc1cccc(Nc2ncnc3c(NC(=O)CCl)cccc23)c1	18.7	38.4	24.2	77.4	26.2	> 100	32	> 100	21.3	57	27.3	68.4	16.6	31.3	36.4	> 100	14	27.2	45	> 100
CCN1C(=O)N(CC)C2C1NN=c1s/c(=C\c3ccccc3Br)c(=O)n12 (stereo not given)	0.03	0.118	0.0355	20.5	< 0.0137	0.0416	0.0228	15.3	0.061	> 48.7	0.0389	17.4	0.0242	0.382	7.19	25	0.0319	0.133	9.29	33.3
Cc1ccc(C2=Nc3ccccc3SC(c3cccc([N+](=O)[O-])c3)C2)cc1 (stereo not given)	–	> 100	–	94.7	–	79.2	–	> 100	–	> 100	–	72.2	–	19	–	> 100	–	> 100	–	> 100
